The results in this text go back to PubChem BioAssay (NCI).

Where “and” joins values, the source holds several entries; their conditions need not be identical. Equal values may be shown once.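 48-hour exposure; five concentrations; linearly interpolated endpoints. GI50: concentration for 50% inhibition of growth. TGI denotes the concentration required for complete inhibition of growth.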 Where a SMILES comes first, the peptide text is derived from it. Peptide text beside a SMILES is read from it. The star is where a group is joined. * marks the point of attachment. Palmitoyl = CCCCCCCCCCCCCCCC(=O)*; Boc = CC(C)(C)OC(=O)*

Holding throughout (assay): NCI tumour cell line growth inhibition, 48 h
Assay [1] concerns SF-295 CNS.
For assay [2], the system named is HCT-116 colon.
The subject of assay [3] is UACC-62 melanoma.
Assay [4] relates to U251 CNS.
The test system of assay [5] is UO-31 renal.
Assay [6] relates to NCI-H460 lung.
In assay [7] the test system is COLO 205 colon.
Assay [8] has as its system 786-0 renal.
Assay [9] has as its system A549 NSCLC.
Assay [10] has as its system HS 578T breast.

With `CN1C(=O)[C@@]2(C=CC3(CC2)OCCO3)c2ccccc21`, the TGI in [1], in [2], in assay [3], in assay [4], in assay [5] and in assay [6] was more than 50 µM in each case. For the same compound, the TGI in assay [7], in [8] and in assay [9] was more than 50 µM in each case.
`COc1ccc(CC2C(=O)NC(C)C(=O)N(C)C3Cc4ccc(cc4)Oc4cc(ccc4O)CC(C(=O)NC(C)C(=O)NC(C)C(=O)N2C)N(C)C3=O)cc1` (centres undefined): the GI50 in assay [2] was less than 0.0001 µM; in assay [4] it was less than 0.0001 µM; in assay [5], 0.24 µM; in [6] it was 0.000156 µM; in assay [7] it was 0.000278 µM. Further, the TGI in assay [2] was 0.112 µM and 0.0554 µM; in [3], 0.161 µM and 0.0223 µM; in assay [5] it was 5.75 µM and 4.16 µM; in assay [6] it was 0.0284 µM and 0.106 µM and 0.0325 µM; in assay [7], 0.0745 µM; in assay [9] it was 0.193 µM and 0.599 µM and 0.306 µM.
As to `C=CCN1C(=O)/C(=C/c2ccc(Cl)cc2)N=C1SC1OC(COC(C)=O)C(OC(C)=O)C(OC(C)=O)C1OC(C)=O` (centres undefined), the TGI was 9.79 µM in assay [10]; 54 µM and > 100 µM in [1]; 87.5 µM in [2]; 35.7 µM and > 100 µM in assay [3]; 19.7 µM and > 100 µM in [4]; 36.2 µM and > 100 µM in assay [6]. For the same compound, the TGI was more than 100 µM in assay [7], 12.6 µM in assay [8] and 65.7 µM in assay [9]. Also, the GI50 in [1] is 18.2 µM and 49.9 µM; in [3], 10.4 µM and 21.5 µM; in assay [4] it was 5.23 µM and 30.1 µM; in assay [6], 8.11 µM and 31.5 µM; in assay [7], > 89.5 µM and 31.9 µM.
On to `CCN(CC)c1ccc(C(=C2C=CC(=[N+](CC)CC)C=C2)c2ccccc2)cc1`, for which the TGI in assay [1] was 0.0664 µM; in assay [2], 0.127 µM; in assay [3] it was 0.231 µM; in assay [4], 0.112 µM; in [5], 0.185 µM; in [7], 0.136 µM. This compound registered a TGI in assay [8] of 0.151 µM.
`COC1(OC)/C(=C(\N)C=O)NC(C)(C)N1O`: the TGI in [1], in [2], in assay [3], in assay [4], in [5] and in assay [6] was more than 100 µM each time. The TGI in [7], in assay [8] and in [9] was more than 100 µM in each case.
In the case of `COc1cc(/C=C2\C[C@H]3[C@@H]4CC=C5C[C@@H](N6CCCC6)CC[C@]5(C)[C@H]4CC[C@]3(C)[C@H]2OC(C)=O)cc(OC)c1OC`, the TGI amounted to 35.1 µM in assay [10]; 26.5 µM in [1]; 30.5 µM in [2]; 31.7 µM in assay [3]; 29.2 µM in [4]; 30 µM in [5]. Besides, the TGI in [7] is 25.6 µM; in assay [8] it was 23.3 µM; in assay [9], 32 µM.
For the compound `CN(C)CCNC(=O)c1cccc2c(NC(CS)C(=O)O)c3ccccc3nc12` (centres undefined), the TGI in assay [1] is 28.9 µM; in [2], more than 100 µM; in assay [3] it was more than 100 µM; in [4], more than 100 µM; in assay [5] it was 11.8 µM; in assay [6], 87.6 µM. For the same compound, the TGI in assay [7] was 16 µM; in assay [8], more than 100 µM; in assay [9], 66.9 µM.
On to `CCOc1cc(C=O)ccc1O`, for which the TGI in [10], in [1], in [2], in assay [4], in assay [5] and in [6] was more than 100 µM throughout. The TGI in [7], in assay [8] and in assay [9] was more than 100 µM throughout.
Turning to `COc1cc(C2S/C(=C/c3ccccc3)C(=O)N2c2ccc(Cl)cc2)cc(OC)c1OC` (centres undefined), the TGI in [10] was more than 100 µM; in [1], more than 100 µM; in assay [2], more than 100 µM; in [3], more than 100 µM; in [4] it was more than 94.1 µM; in assay [5], more than 100 µM. For the same compound, the TGI in [7] is 5.68 µM; in assay [8] it was more than 100 µM; in assay [9] it was more than 100 µM.
On to `COc1cc2c(cc1OC)C1Cc3ccccc3CN1CCC2` (centres undefined), for which the TGI in assay [10], in [1], in assay [2], in assay [3], in assay [4] and in assay [6] was more than 100 µM throughout. In addition, the TGI in assay [7], in assay [8] and in assay [9] was more than 100 µM in each case.
Consider `O=C1N2CCc3c([nH]c4ccccc34)C23CC2CCCC12S3` (centres undefined), for which the TGI in [10], in [1], in assay [2], in assay [3], in [4] and in assay [5] was more than 50 µM in each case. The TGI in [7], in [8] and in assay [9] was more than 50 µM throughout.
For the compound `COc1cc([C@@H]2c3cc4c(cc3[C@@H](Nc3ccc(Cl)cc3C(=O)c3ccccc3Cl)[C@H]3COC(=O)[C@H]23)OCO4)cc(OC)c1OC`, the TGI was more than 37.4 µM in assay [1]; more than 100 µM in assay [2]; more than 72.4 µM in assay [3]; 0.364 µM in [4]; more than 100 µM in [5]; more than 100 µM in assay [8]. Also, the TGI in assay [9] is more than 100 µM.
Consider `CC(C)CC1c2[nH]c3ccccc3c2C[C@H]2C(=O)NC(COC(C)(C)C)C(=O)N12` (some centres undefined), for which the TGI was 37 µM in assay [10]; 35 µM in assay [1]; 37.9 µM in [2]; 49.5 µM in assay [3]; 41 µM in assay [4]; more than 100 µM in assay [5]. Besides, the figures for the TGI in assay [7], in assay [8] and in assay [9] were 38.8 µM, 98.5 µM and more than 100 µM, respectively.
For the compound `CSCCC(NC(=O)C(CC(C)C)NC(=O)CNC(=O)OC(C)(C)C)C(=O)N(C)C` (stereo not drawn) (Boc-Gly-Leu-Met-NMe2; configuration not given here), the TGI in assay [10], in assay [1], in assay [2], in assay [3], in assay [4] and in assay [5] was more than 100 µM in each case. Besides, the TGI in assay [7], in assay [8] and in assay [9] was more than 100 µM throughout.
As for `CCCCCCCCCCCCCCCC(=O)NC(CCCCN)C(=O)NCC(=O)NC(Cc1ccccc1)C(=O)N1CCCC1C(=O)NC(CO)C(=O)NC(Cc1ccc(O)cc1)C(=O)NC(CCCCN)C(=O)NC(CC(C)C)C(=O)NC(CCCN=C(N)N)C(=O)N1CCCC1C(=O)NCC(N)=O` (centres undefined) (Palmitoyl-KGFPSYKLRPG-NH2; configuration not given here), the GI50 in assay [10] is 31.2 µM; in assay [1] it was 27.1 µM; in assay [2], 15.3 µM; in [5], 20.2 µM; in assay [6], 19.2 µM; in [7], 19.6 µM. Further, in assay [9], the GI50 was 19.5 µM. In addition, the TGI in assay [10] was more than 100 µM; in assay [1] it was 72.6 µM; in [2], 31.8 µM; in assay [5] it was 49.9 µM; in assay [6], 37.2 µM; in assay [7], 41.1 µM. This compound had a TGI in [9] of 44.4 µM.
As for `CC(=O)OCC1OC(n2c3c(c(-c4ccco4)c(C#N)c2=S)CCCC3)C(OC(C)=O)C(OC(C)=O)C1OC(C)=O` (centres undefined), the TGI is 85.6 µM in assay [10]; 21.5 µM in assay [1]; more than 31.6 µM in [2]; more than 31.6 µM in assay [5]; more than 31.6 µM in [6]; more than 31.6 µM in [7]. The TGI in assay [8] was 52.6 µM; in assay [9], more than 31.6 µM.
Turning to `CCC1(O)CN(CCOC)[C@H]2C[C@@H]1C(=O)c1[nH]c3ccccc3c12` (some centres undefined), the TGI in [10], in assay [1], in [2], in assay [4], in assay [5] and in [6] was more than 100 µM throughout. In addition, the TGI in assay [7], in assay [8] and in assay [9] was more than 100 µM each time.
With `NC(CO)c1ccccc1` (centres undefined), the TGI in assay [1], in assay [2], in assay [3], in assay [4], in assay [5] and in assay [6] was more than 100 µM in each case. In assay [9], this compound displayed a TGI of more than 100 µM.
Consider `C=C1C(=O)C[C@@]23CCC[C@@]12CC(O)C3` (some centres undefined), for which the TGI is more than 100 µM in assay [1]; 44.5 µM in assay [2]; 30.9 µM in assay [3]; more than 100 µM in [4]; more than 94.6 µM in [5]; 54.1 µM in assay [6]. For the same compound, the TGI in [7] was 41.1 µM; in assay [9] it was more than 100 µM.
On to `C/C(=N\O)c1ccc(Nc2c3ccccc3nc3occc23)cc1`, for which the TGI in [1] is 5.26 µM; in assay [2], 2.52 µM; in assay [3], 16.6 µM; in assay [4], more than 24.6 µM; in assay [5], more than 50 µM; in [6], 5.77 µM. In addition, the TGI in assay [7] was 0.65 µM; in assay [8], 3.3 µM; in [9] it was more than 11.9 µM.
Consider `COc1ccc(C=O)cc1Oc1ccc(C[C@H]2c3c(cc(OC)c4c3Oc3cc5c(cc3O4)CCN(C)C5=O)CCN2C)cc1`, for which the TGI in assay [10] stood at 21.7 µM; in [1], 16.3 µM; in [2], 15 µM; in assay [4] it was 22.8 µM; in assay [5], 14.6 µM; in assay [6] it was 16 µM. In addition, the values for the TGI in assay [7], in assay [8] and in [9] were more than 50 µM, 16.3 µM and more than 50 µM, respectively.
Consider `C=C1c2nc3ccccc3n2C=C(c2ccccc2)N1c1ccc(OC)cc1`, for which the TGI in assay [1] is 25.3 µM; in assay [2], 59.9 µM; in assay [3], 62.2 µM; in assay [4] it was more than 100 µM; in assay [5], 26.6 µM; in [6] it was 24 µM. The values for the TGI in assay [7], in assay [8] and in assay [9] were more than 100 µM, 56.8 µM and more than 100 µM, respectively.
Turning to `COC(=O)CCc1ccc2c(c1)CC1(C2)Cc2ccc(CCC(=O)OC)cc2C1`, the TGI in [10], in [1], in assay [2], in assay [3], in [4] and in assay [5] was more than 100 µM throughout. Besides, the TGI in assay [7], in [8] and in [9] was more than 100 µM throughout.
Take `CSc1nc2c(ncn2C2OCC(O)C(O)C2O)c(=O)[nH]1` (centres undefined): the TGI in [1], in assay [2], in assay [3], in assay [4], in assay [5] and in assay [6] was more than 100 µM in each case. Besides, the TGI in assay [7] and in assay [9] was more than 100 µM in each case.
For the compound `COC1(OC)N=C(N)C2(C#N)/C(=N/N(C)C)CC(C)C12C#N` (centres undefined), the TGI in assay [10], in [1], in assay [2], in [3], in assay [4] and in assay [5] was more than 100 µM in each case. Further, the TGI in [7], in [8] and in assay [9] was more than 100 µM throughout.
As for `CC(=O)c1c(O)c(C)c(O)c2c1OC1=CC(=O)C(C(C)=O)C(=O)C12C` (centres undefined), the GI50 in [1] was 3.48 µM and 8.79 µM; in assay [2], 10.9 µM and 22.3 µM; in assay [3], 4.86 µM and 12.7 µM; in assay [4], 4.13 µM and 11.3 µM; in assay [5], 1.96 µM and 18.2 µM; in assay [6], 5.29 µM and 14.5 µM. Also, the GI50 in assay [7] is 4.71 µM and 19.9 µM; in assay [9], 3.77 µM and 13.8 µM. In addition, the TGI is 12.4 µM and 33.8 µM in assay [1]; 45.7 µM and 66.3 µM in [2]; 20.1 µM and 26.4 µM in assay [3]; 18.4 µM and 47.6 µM in assay [4]; 7.08 µM and 53.6 µM in assay [5]; 20.4 µM and 43.7 µM in assay [6]. Moreover, the TGI in [7] is 17.4 µM and 54.8 µM; in assay [9] it was 25.1 µM and 48.4 µM.
